In publication PMC6271950, “LC-MS/MS Determination and Pharmacokinetic Study of Dehydrocorydaline in Rat Plasma after Oral Administration of Dehydrocorydaline and Corydalis yanhusuo Extract” (Molecules, 2014):
Blank lines part the entries; values can stand above or below the compound they belong to.

How the values were obtained:
[1] = Stability of DHC in rat plasma (QC samples); type: in vitro ADME; details: for Cdec (mean ± S.D.): n = 6
Experimental: This is evidenced by the fact that the responses varied no more than ±10% over 24 h at the QC concentrations. After storage at ambient temperature for 12 h, the concentration of DHC in the plasma deviated less than ±13% from those in freshly-spiked plasma (Table 3).
The stability of DHC in rat plasma was evaluated under conditions that mimicked those likely to be encountered during sample storage and analytical processing. Six replicates of QC samples were analyzed for DHC. The QC samples were frozen and stored at −20 °C for a week. The concentration variation of the DHC in the prepared QC samples was detected after (i) three cycles of freezing and thawing, (ii) placement in an auto-sampler at 4 °C for 24 h, and (iii) storing at ambient temperature for 12 h.

[2] = Biliary cumulative excretion of unchanged DHC after a single oral dose; type: in vivo, Sprague-Dawley rats; details: rat, single oral dose 97.5 mg/kg
Experimental: (§1) The cumulative excretion of DHC in bile and urine after a single i.g. dose of DHC (97.5 mg/kg) was determined. […] However, the urinary cumulative excretion of DHC was little. The mean accumulated amount of DHC in urine over 96 h was 0.17% ± 0.13% of dose. […] There might be a huge “first pass” effect in liver after oral administration and account for the trace plasma concentration.
For biliary excretion study, four rats were light anesthetized by ether and a PE-10 cannula was implanted into the bile duct to collect bile. A single dose of DHC was administered as described above. Bile samples were collected at 0–2, 2−4, 4−6, 6−8, 8−10, 10−24 and 24−48 h post-dosing and kept at −20 °C after the volume of each collection was recorded.
(§2) A 200 μL aliquot of plasma was vortex mixed for 3 min with 200 μL of water and 50 μL of IS (800 ng/mL). After centrifugation at 9000 rpm for 10 min, all the supernatant was loaded onto an Oasis HLB cartridge (Waters, Milford, MA, USA), which was pre-conditioned with 1 mL of methanol followed by 1 mL of deionized water. The loaded-cartridge was sequentially washed with 1 mL of water and 1 mL of 20% methanol. […]
(§3) An Agilent 1100 system (Palo Alto, CA, USA) equipped with a vacuum degasser, a quaternary pump, and an auto-sampler were used. […] [26, 27, 28] were monitored for DHC and IS, respectively. […]

[3] = Plasma pharmacokinetics of DHC after oral administration of pure DHC or EFY; type: in vivo, Sprague-Dawley rats; details: Sprague-Dawley, DHC in rat plasma, equivalent dose of 97.5 mg/kg DHC (EFY 483 mg/kg), n = 5, mean ± SD
Experimental: DHC is the most abundant quaternary protoberberine-type alkaloid in EFY and has clear cardiovascular pharmacological activity. A fully validated LC-ESI-MS/MS method was developed and was successfully applied to a pharmacokinetic study of DHC when given in the two different dosage forms (EFY and pure compound) via oral administration in rats. The doses of DHC and EFY were 97.5 mg/kg and 483 mg/kg (equivalent to 97.5 mg/kg DHC), respectively. The mean plasma concentration-time profiles of DHC after the two doses are illustrated in Figure 5 and the estimated pharmacokinetic parameters are presented in Table 5.
For pharmacokinetics study, the rats were divided into two groups (n = 5 per group). Doses of 97.5 mg/kg of DHC or 483 mg/kg of EFY (equivalent to 97.5 mg/kg DHC, 20.19% DHC in EFY) were all gavage administrated. Blood samples (500 μL) were withdrawn from the oculi chorioideae vein into heparinized tubes before dosing and subsequently at 15, 30 and 45 min and then at 1, 2, 4, 6, 8, 12 and 24 h following initial administration. After 1 h and 8 h, 2 mL of normal saline was injected into the caudal vein to compensate for blood loss. After centrifuging at 4000 rpm for 10 min, plasma samples were obtained and frozen at −20 °C until analysis.
A 200 μL aliquot of plasma was vortex mixed for 3 min with 200 μL of water and 50 μL of IS (800 ng/mL). After centrifugation at 9000 rpm for 10 min, all the supernatant was loaded onto an Oasis HLB cartridge (Waters, Milford, MA, USA), which was pre-conditioned with 1 mL of methanol followed by 1 mL of deionized water. The loaded-cartridge was sequentially washed with 1 mL of water and 1 mL of 20% methanol. The analytes were then eluted with 1 mL of methanol in water containing 2% formic acid. The collected eluate was evaporated to dryness at 40 °C under a gentle stream of nitrogen. The residue was reconstituted in 150 μL of 10% acetonitrile, and 30 μL of the resulting sample was injected into the LC-MS/MS system for assay. Bile and urine samples were all processed in a similar manner as the plasma samples.
An Agilent 1100 system (Palo Alto, CA, USA) equipped with a vacuum degasser, a quaternary pump, and an auto-sampler were used. Chromatographic separation was achieved on an Atlantis T3 column (100 mm × 2.1 mm, 5 μm; Waters, Milford, MA, USA), which was eluted with a mobile phase of acetonitrile and water (containing 0.8% formic acid and 10 mM ammonium acetate) (28:72, v/v). The mobile phase was delivered at a flow-rate of 0.25 mL/min and 40% of the eluate was introduced into an API 3000 triple-quadrupole mass spectrometer (Applied Biosystems MDS SCIEX, Concord, ON, Canada) equipped with a TurboIonSpray electrospray ionization (ESI) source. Detection was performed using positive-ion electrospray ionization in multiple reaction monitoring (MRM) modes. The transitions from molecular ion to dominant product ion m/z 366→351[M−CH3] and m/z 348→332[M−CH3−H] [26, 27, 28] were monitored for DHC and IS, respectively. The optimized working parameters for mass detection were as follows. The nebulizer, curtain, and collision-activated dissociation gases were set at 11, 7 and 11 (instrument units), respectively. The TurboIonSpray voltage and temperature were set at 4.5 kV and 400 °C, respectively. All data acquisition was performed using Analyst software (v1.4, AB MDS SCIEX).
Pharmacokinetic parameters were established from the plasma concentration–time data using non-compartmental analysis. The terminal elimination rate constant (Ke) was determined by linear regression of the terminal portion of the plasma concentration-time data. The elimination half-life (t1/2) was calculated using the expression: t1/2 = ln2/Ke(2) The area under the curve (AUC) for the plasma concentration-time trace from zero to the last plasma drug concentration (AUC0–t) was calculated using the trapezoidal rule. […]

[4] = Urinary cumulative excretion of DHC after a single oral dose; type: in vivo, Sprague-Dawley rats; details: rat, single oral dose 97.5 mg/kg, over 96 h
Experimental: as §1
For urinary excretion study, four rats were used. DHC was administered as described above. The animals were housed in stainless steel metabolic cages with free access to tap water. Urine was collected at 0–4, 4–8, 8–12, 12–24, 24–36, 36–60, 60–84 and 84–96 h post-dosing and kept at −20 °C after the volume of each collection was recorded.
as §2, with “methanol. The analytes were then eluted with 1 mL of methanol in water containing 2% formic acid.” for “methanol.”
as §3

[5] = parameters: method as in PMID 16956957; details: 1 h after oral administration, in situ intestinal loop; cited from earlier work
P-glycoprotein = tested on: P-glycoprotein; parameters: method as in PMID 12530470, PMID 12434406; details: efflux in Caco-2 cells and the liver; cited from earlier work
cytochrome P450 3A4 = tested on: cytochrome P450 3A4; parameters: method as in PMID 16133554; details: cited from earlier work
[6] = after three freeze-thaw cycles, Cnom 1.25 ng/mL
[7] = after three freeze-thaw cycles, Cnom 25 ng/mL
[8] = after three freeze-thaw cycles, Cnom 250 ng/mL
[9] = postpreparative stability (24 h, auto-sampler 4 °C), Cnom 1.25 ng/mL
[10] = postpreparative stability (24 h, auto-sampler 4 °C), Cnom 25 ng/mL
[11] = postpreparative stability (24 h, auto-sampler 4 °C), Cnom 250 ng/mL
[12] = short-term temperature stability (12 h, ambient), Cnom 1.25 ng/mL
[13] = short-term temperature stability (12 h, ambient), Cnom 25 ng/mL
[14] = short-term temperature stability (12 h, ambient), Cnom 250 ng/mL

- variation in the concentration from nominal concentration ([1]; after three cycles of freezing and thawing, rat plasma): ≤ 15%
- Relative Error [1, 6]: −0.27%
- Cdec (mean ± S.D.) [1, 6]: 1.25 ± 0.1 ng/mL
- Relative Error [1, 7]: 10%
- Cdec (mean ± S.D.) [1, 7]: 27.5 ± 0.87 ng/mL
- Relative Error [1, 8]: 9.07%
- Cdec (mean ± S.D.) [1, 8]: 272.67 ± 8.14 ng/mL
- Relative Error [1, 9]: −5.47%
- Cdec (mean ± S.D.) [1, 9]: 1.18 ± 0.06 ng/mL
- Relative Error [1, 10]: 4.8%
- Cdec (mean ± S.D.) [1, 10]: 26.2 ± 0.86 ng/mL
- Relative Error [1, 11]: 8.14%
- Cdec (mean ± S.D.) [1, 11]: 270.33 ± 9.42 ng/mL
- variation of responses ([1]; processed samples in auto-sampler at 4 °C over 24 h, QC concentrations): ≤ 10%
- Relative Error [1, 12]: −3.87%
- Cdec (mean ± S.D.) [1, 12]: 1.2 ± 0.1 ng/mL
- Relative Error [1, 13]: −12.13%
- Cdec (mean ± S.D.) [1, 13]: 21.97 ± 0.51 ng/mL
- Relative Error [1, 14]: −7.73%
- Cdec (mean ± S.D.) [1, 14]: 230.67 ± 15.96 ng/mL
- deviation of concentration from freshly-spiked plasma ([1]; storage at ambient temperature for 12 h, rat plasma): < 13%
- mean accumulated amount of DHC in bile ([2]; in 2 h): 12.2% ± 7.38%
- total biliary excretion of unchanged DHC ([2]; up to 48 h): 60.04% ± 24.66%
- AUC(0-inf) [3]: 59.1 ± 11.5 ng·h/mL
- AUC(0-t) [3]: 52.4 ± 12.8 ng·h/mL
- Cmax [3]: 9.4 ± 4.18 ng/mL
- Tmax [3]: 1 h
- half-life [3]: 476 ± 80.4 min
- k el ([3]; read-out: Ke (converted)): 2.5e-05 s⁻¹
- mean accumulated amount of DHC in urine [4]: 0.17% ± 0.13%
SMILES: COc1cc2c(cc1OC)-c1c(C)c3ccc(OC)c(OC)c3c[n+]1CC2 [DHC, dehydrocorydaline]

SMILES: COc1ccc2cc3[n+](cc2c1OC)CCc1cc2c(cc1-3)OCO2 [berberine]
- absorbed amount [5]: 33.6 % of the given dose
- P-glycoprotein substrate (P-glycoprotein): substrate of P-glycoprotein
- cytochrome P450 3A4 inhibition (cytochrome P450 3A4): weak cytochrome P450 3A4 inhibitor
